From patent US7541020B2, “Aminoalkyl glucosaminide phosphate compounds and their use as adjuvants and immunoeffectors” (priority 1997, dated 2009)
Read-outs that look alike come from different tables or passages of the source.

Key:
E.G7 (OVA) cells = conditions: s.c. 25 μg OVA in AGP preparation, spleen cells 21 days later
influenza A/HK/68 = type: in vivo, ICR mice; conditions: mouse, in vivo

Substance | % Cytotoxicity (E.G7 (OVA) cells; E:T 12.5:1) | % Cytotoxicity (E.G7 (OVA) cells; E:T 25:1) | % Cytotoxicity (E.G7 (OVA) cells; E:T 50:1) | Percent Survival (influenza A/HK/68) | Titer−1 IgG1 (influenza A/HK/68) | Titer−1 IgG2a (influenza A/HK/68) | Titer−1 IgG2b (influenza A/HK/68) | Titer−1 Total IgG (influenza A/HK/68)
3-Hydroxy-(S)-2-[(R)-3-heptanoyloxytetradecanoylamino]propyl 2-Deoxy-4-O-phosphono-2-[(R)-3-heptanoyloxytetradecanoylamino]-3-O-[(R)-3-heptanoyloxytetradecanoyl]-β-D-glucopyranoside Triethylammonium Salt [B8] | 15% | 20% | 36% | 80% | 3200 | 400 | 1600 | 6400
N-[(R)-3-Decanoyloxytetradecanoyl]-O-[2-deoxy-4-O-phosphono-2-[(R)-3-hexanoyloxytetradecanoylamino]-3-O-[(R)-3-decanoyloxytetradecanoyl]-α-D-glucopyranosyl]-L-serine Triethylammonium Salt [B36] | 4% | 7% | 13% |  |  |  |  | 
N-[(R)-3-Hexanoyloxytetradecanoyl]-O-[2-deoxy-4-O-phosphono-2-[(R)-3-decanoyloxytetradecanoylamino]-3-O-[(R)-3-decanoyloxytetradecanoyl]-α-D-glucopyranosyl]-L-serine Triethylammonium Salt [B37] | 6% | 8% | 12% |  |  |  |  | 
N-[(R)-3-Hydroxytetradecanoyl]-O-[2-deoxy-4-O-phosphono-2-[(R)-3-dodecanoyloxytetradecanoylamino]-3-O-[(R)-3-tetradecanoyloxytetradecanoyl]-α-D-glucopyranosyl]-L-serine Triethylammonium Salt [B43] | 6% | 12% | 19% |  |  |  |  | 
N-[(R)-3-Hexanoyloxytetradecanoyl]-O-[2-deoxy-4-O-phosphono-2-[(R)-3-hexanoyloxytetradecanoylamino]-3-O-[(R)-3-decanoyloxytetradecanoyl]-α-D-glucopyranosyl]-L-serine Triethylammonium Salt [B38] | 16% | 25% | 38% |  |  |  |  | 
N-[(R)-3-Hexanoyloxytetradecanoyl]-O-[2-deoxy-4-O-phosphono-2-[(R)-3-decanoyloxytetradecanoylamino]-3-O-[(R)-3-hexanoyloxytetradecanoyl]-α-D-glucopyranosyl]-L-serine Triethylammonium Salt [B39] | 13% | 21% | 33% |  |  |  |  | 
N-[(R)-3-Decanoyloxytetradecanoyl]-O-[2-deoxy-4-O-phosphono-2-[(R)-3-hexanoyloxytetradecanoylamino]-3-O-[(R)-3-hexanoyloxytetradecanoyl]-α-D-glucopyranosyl]-L-serine Triethylammonium Salt [B40] | 8% | 12% | 20% |  |  |  |  | 
N-[(R)-3-Decanoyloxytetradecanoyl]-O-[2-deoxy-4-O-phosphono-2-[(R)-3-decanoyloxytetradecanoylamino]-3-O-[(R)-3-hexanoyloxytetradecanoyl]-α-D-glucopyranosyl]-L-serine Triethylammonium Salt [B35] | 2% | 5% | 9% |  |  |  |  | 
